From patent EP2818472A1, “Imidazo[4,5-c]pyridine and pyrrolo[3,2-c]pyridine compounds as G-protein-coupled receptor kinase 5 (GRK5) modulators” (Max-Planck-Gesellschaft zur Förderung der Wissenschaften …, priority 2013, dated 2014) come the findings set out here.

This assay deals with beta-TC6 cells. In words: Insulin HTRF assay (relative activity Ar) in beta-TC6 cells. It counts as cell-based, mouse. Particulars: Mus musculus, Beta-TC6, 4 h, insulin HTRF, supernatant of beta-TC6 cells, incubation with test compound at 37°C for 2, 3, 4h; read-out: Ar (relative activity). In a few lines: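 beta-TC6 cells (15k/well, seeded 24 or 48 h) washed, then exposed to compound in induction buffer (0.5% DMSO final) for 2, 3 or 4 h at 37°C.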
A general note: TR-FRET usually uses a lanthanide donor and a delayed reading to cut background.
Take `c1cc2[nH]c(-c3ccc4c(c3)OCCO4)nc2c(NCC2CC2)n1` [Compound 419, N-(cyclopropylmethyl)-2-(2,3-dihydro-1,4-benzodioxin-6-yl)-1H-imidazo[4,5-c]pyridin-4-amine]: the Emax fell in the range of 50 to 100%.
In the case of `CNc1nc2cnc(-c3ccccc3OC)cc2n1-c1ccccc1` [Compound 782, 6-(2-methoxyphenyl)-N-methyl-1-phenyl-imidazo[4,5-c]pyridin-2-amine] it was 0 to 30%; in that of `N#Cc1ccc(Nc2cc3[nH]c(-c4ccccn4)cc3cn2)cc1` [Compound 68, 4-[[2-(2-pyridyl)-1H-pyrrolo[3,2-c]pyridin-6-yl]amino]benzonitrile], 50 to 100%; in that of `COc1cc(Nc2nc3cnc(-c4ccccc4)cc3n2C)cc(OC)c1OC` [Compound 588, 1-methyl-6-phenyl-N-(3,4,5-trimethoxyphenyl)imidazo[4,5-c]pyridin-2-amine], 30 to 50%.
Consider `CC(=O)Nc1ccc(Nc2cc3c(cn2)cc(-c2cnn(C)c2)n3C)cc1` [Compound 126, N-[4-[[1-methyl-2-(1-methylpyrazol-4-yl)pyrrolo[3,2-c]pyridin-6-yl]amino]phenyl]acetamide], for which the Emax lay within 50 to 100%.
Next, `CN(C)c1cccc(Nc2nccc3c2cc(-c2ccsc2)n3C)c1` [Compound 277, N1,N1-dimethyl-N3-[1-methyl-2-(3-thienyl)pyrrolo[3,2-c]pyridin-4-yl]benzene-1,3-diamine]: 30 to 50%.
In the case of `CNc1nc2cnc(Nc3ccc(NC(C)=O)cc3)cc2n1Cc1ccc(OC)c(OC)c1` [Compound 661, N-[4-[[1-[(3,4-dimethoxyphenyl)methyl]-2-(methylamino)imidazo[4,5-c]pyridin-6-yl]amino]phenyl]acetamide], the Emax is 50 to 100%.
Next, `CN1CCN(c2ccc(Nc3nccc4[nH]c(-c5cccnc5)cc34)cc2)CC1` [Compound 235, N-[4-(4-methylpiperazin-1-yl)phenyl]-2-(3-pyridyl)-1H-pyrrolo[3,2-c]pyridin-4-amine]: 50 to 100%; `CC(C)CNc1nccc2[nH]c(-c3ccc4c(c3)OCCO4)nc12` [Compound 413, 2-(2,3-dihydro-1,4-benzodioxin-6-yl)-N-isobutyl-1H-imidazo[4,5-c]pyridin-4-amine]: 30 to 50%.
In the case of `COc1ccc(Nc2nccc3[nH]c(-c4ccc(C)cc4)nc23)cc1` [Compound 382, N-(4-methoxyphenyl)-2-(p-tolyl)-1H-imidazo[4,5-c]pyridin-4-amine] it was 30 to 50%; in that of `COc1ccc(Nc2cc3c(cn2)ncn3C)c(OC)c1` [Compound 727, N-(2,4-dimethoxyphenyl)-1-methyl-imidazo[4,5-c]pyridin-6-amine], 50 to 100%.
In the case of `CN1CCN(c2ccc(Nc3cc4[nH]c(-c5ccccc5)cc4cn3)cc2)CC1` [Compound 177, N-[4-(4-methylpiperazin-1-yl)phenyl]-2-phenyl-1H-pyrrolo[3,2-c]pyridin-6-amine] it was 50 to 100%; in that of `CNc1nc2cnc(Nc3cccc(NS(C)(=O)=O)c3)cc2n1-c1cc(OC)c(OC)c(OC)c1` [Compound 492, N-[3-[[2-(methylamino)-1-(3,4,5-trimethoxyphenyl)imidazo[4,5-c]pyridin-6-yl]amino]phenyl]methanesulfonamide], 30 to 50%; in that of `CN(C)C(=O)c1ccc(-c2cc3cnc(Nc4cccnc4)cc3n2C)cc1` [Compound 47, N,N-dimethyl-4-[1-methyl-6-(3-pyridylamino)pyrrolo[3,2-c]pyridin-2-yl]benzamide], 50 to 100%.
Consider `COc1cccc(-c2nc3c(Nc4ccccc4)nccc3[nH]2)c1F` [Compound 472, 2-(2-fluoro-3-methoxy-phenyl)-N-phenyl-1H-imidazo[4,5-c]pyridin-4-amine], for which the Emax was 50 to 100%.
Next, `CNc1nc2cnc(Nc3cccc(F)c3)cc2n1Cc1ccc(OC)c(OC)c1` [Compound 674, 1-[(3,4-dimethoxyphenyl)methyl]-N6-(3-fluorophenyl)-N2-methyl-imidazo[4,5-c]pyridine-2,6-diamine]: 30 to 50%.
